# Entries after “also recorded” stand apart in the source; their conditions may differ. Like-named read-outs stand apart in the source and are kept apart here.
# Experiments:
# [1] = target: T1, dihydropyrimidinase from P. aeruginosa PAO1 (Pseudomonas aeruginosa, UniProt Q9I676); assay type: biochemical
# [2] = target: T1, dihydropyrimidinase from P. aeruginosa PAO1; assay: Spectrophotometric enzyme assay: inhibition of dihydropyrimidinase; assay type: biochemical; details: for Inhibitory effect on dihydropyrimidinase activity: 5-propyl-hydantoin or dihydrouracil as substrate
# Description: (§1) A rapid spectrophotometric assay was used to determine the enzymatic activity according to a previously described protocol for hydantoinase, allantoinase, dihydroorotase, and imidase. Dihydrouracil, 5-propyl-hydantoin, and phthalimide were used as substrates. Unless explicitly stated otherwise, dihydrouracil (2 mM) was used as the substrate in the standard assay of dihydropyrimidinase. Briefly, the decrease in absorbancy at 230, 248, and 298 nm was measured upon hydrolysis of dihydrouracil, 5-propyl-hydantoin, and phthalimide as the substrate at 25°C, respectively. To start the reaction, the purified dihydropyrimidinase (10–70 μg) was added to a 2 mL solution containing the substrate and 100 mM Tris–HCl (pH 8.0). Substrate hydrolysis was monitored with a UV/vis spectrophotometer (Hitachi U 3300, Hitachi High-Technologies, Tokyo, Japan). The extinction coefficient of each substrate was determined experimentally by direct measurement with a spectrophotometer. The extinction coefficients of dihydrouracil, 5-propyl-hydantoin, and phthalimide were 0.683 mM^-1cm^-1 at 230 nm, 0.0538 mM^-1cm^-1 at 248 nm, and 3.12 mM^-1cm^-1 at 298 nm, respectively. The initial rates of change were a function of enzyme concentration within the absorbance range of 0.01–0.18 min^-1. A unit of activity was defined as the amount of enzyme catalyzing the hydrolysis of 1 μmol substrate/min, and the specific activity was expressed in terms of units of activity per milligram of enzyme. The kinetic parameters K m and V max were determined from a non-linear plot by fitting the hydrolyzing rate from individual experiments to the Michaelis–Menten equation (Enzyme Kinetics module of Sigma-Plot; Systat Software, Chicago, IL, USA).
# [3] = target: T1, dihydropyrimidinase from P. aeruginosa PAO1; assay: Substrate specificity / Michaelis-Menten kinetics of dihydropyrimidinase; assay type: biochemical; details: for K m / V max / V max/K m: compound as substrate; for Fold: V max/K m relative to dihydrouracil
# Description: as §1
# [4] = target: N337A mutant of P. aeruginosa dihydropyrimidinase (Pseudomonas aeruginosa, UniProt Q9I676, N337A); assay: Fluorescence quenching of the N337A mutant; assay type: binding, Pseudomonas aeruginosa PAO1; details: for Red shift in λmax: N337A mutant, from 333.5 nm
# Sequence of N337A mutant of P. aeruginosa dihydropyrimidinase (Q9I676 whole entry N337A): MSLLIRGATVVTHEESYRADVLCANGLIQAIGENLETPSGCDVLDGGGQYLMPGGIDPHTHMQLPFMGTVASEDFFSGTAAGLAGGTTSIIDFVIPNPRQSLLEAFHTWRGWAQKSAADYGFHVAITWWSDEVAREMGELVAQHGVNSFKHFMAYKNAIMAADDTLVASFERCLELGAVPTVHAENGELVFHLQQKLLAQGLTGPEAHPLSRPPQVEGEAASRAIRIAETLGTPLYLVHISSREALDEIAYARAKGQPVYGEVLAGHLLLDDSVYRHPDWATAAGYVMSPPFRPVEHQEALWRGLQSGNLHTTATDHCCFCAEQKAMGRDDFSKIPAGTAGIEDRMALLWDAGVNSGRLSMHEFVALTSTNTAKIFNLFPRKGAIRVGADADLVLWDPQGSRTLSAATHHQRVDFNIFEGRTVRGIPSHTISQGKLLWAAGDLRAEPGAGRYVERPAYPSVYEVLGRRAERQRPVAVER
# Description: The dihydropyrimidinase mutants (H59A, H61A, K150A, Y155A, H183A, H239A, S289A, D316A, and N337A) were generated according to the manufacturer’s protocol (Stratagene, LaJolla, CA). The presence of the mutation was verified by DNA sequencing in each construct.
# (§2) The dissociation constants (K d) of dihydropyrimidinase was determined using the fluorescence quenching method as previously described for allantoinase, dihydroorotase, and DnaB helicase. An aliquot of each compound was added into the solution containing dihydropyrimidinase (0.8 μM), 50 mM HEPES at pH 7.0. The decrease in intrinsic fluorescence of protein was measured at 334.5 nm upon excitation at 279 nm and 25°C with a spectrofluorimeter (Hitachi F-2700; Hitachi High-Technologies, Tokyo, Japan). At least seven data points were used to calculate each K d. Each data point was an average of 2–3 determinants, and the difference of the determinants was within 10%. The K d was obtained by the equation: ΔF = ΔFmax-K d(ΔF/[compound]) (Enzyme Kinetics module of Sigma-Plot; Systat Software, Chicago, IL, USA).
# [5] = target: P. aeruginosa dihydropyrimidinase (Pseudomonas aeruginosa, UniProt Q9I676); assay: Fluorescence quenching of wild-type dihydropyrimidinase; assay type: binding; details: for Quenching of intrinsic fluorescence / Red shift in emission wavelength: wild-type enzyme; for Quenching of intrinsic fluorescence: 50 μM compound; for Red shift in emission wavelength: λmax from 333.5 nm
# Sequence of P. aeruginosa dihydropyrimidinase (Q9I676 whole entry): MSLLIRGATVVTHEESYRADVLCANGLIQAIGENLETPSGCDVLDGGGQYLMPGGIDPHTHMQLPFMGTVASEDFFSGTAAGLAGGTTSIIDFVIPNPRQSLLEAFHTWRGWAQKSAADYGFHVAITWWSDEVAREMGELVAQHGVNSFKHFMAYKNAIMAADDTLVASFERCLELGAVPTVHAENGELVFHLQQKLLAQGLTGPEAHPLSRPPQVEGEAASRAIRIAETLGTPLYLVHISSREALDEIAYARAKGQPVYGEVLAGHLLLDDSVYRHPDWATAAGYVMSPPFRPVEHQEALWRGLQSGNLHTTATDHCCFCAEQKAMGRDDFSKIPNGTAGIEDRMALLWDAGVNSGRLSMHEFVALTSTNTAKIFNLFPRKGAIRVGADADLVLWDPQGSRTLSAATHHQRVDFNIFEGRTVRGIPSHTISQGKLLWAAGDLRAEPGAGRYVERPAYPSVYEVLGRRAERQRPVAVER
# Description: as §2
# [6] = metal ion 1 mM added to reaction mixture, enzyme purified without metal supplement, dihydrouracil substrate
# [7] = specific activity relative to no metal added, metal ion 1 mM
# [8] = substrate and inhibitor analogs of other cyclic amidohydrolases, read-out: IC50
# [9] = 40 μM dihydromyricetin, dihydrouracil substrate
# [10] = IC50, 5-propyl-hydantoin as substrate
# [11] = IC50, dihydrouracil as substrate
# T1 sequence (Q9I676 whole entry): as above
molecule,measurement,setting,value
[Cl-].[Cl-].[Co+2] [CoCl2],Effect of metal addition on dihydropyrimidinase activity,[1],activated
same,Fold,[1],7.1
same,Specific activity,[1],5.80 ± 0.16 µmol/mg/min
same,Specific activity toward dihydrouracil,[1],5.9 ± 0.4 µmol/mg/min
[Ca+2].[Cl-].[Cl-] [CaCl2],Effect of metal addition on dihydropyrimidinase activity,[1]; 1 mM added to reaction mixture,not useful
same,Specific activity,[1]; [6],0.82 ± 0.05 µmol/mg/min
same,Fold,[1]; [7],1.0
O=c1c(O)c(-c2ccc(O)c(O)c2)oc2cc(O)cc(O)c12 [quercetin],Inhibitory effect on dihydropyrimidinase activity,[2],insignificant
[Cl][Mn][Cl] [MnCl2],Effect of metal addition on dihydropyrimidinase activity,[1]; 1 mM added to reaction mixture,activated
same,Specific activity,[1]; [6],1.72 ± 0.09 µmol/mg/min
same,Fold,[1]; [7],2.1
[Cl][Cd][Cl] [CdCl2],Effect of metal addition on dihydropyrimidinase activity,[1]; 1 mM added to reaction mixture,not useful
same,Specific activity,[1]; [6],0.74 ± 0.04 µmol/mg/min
same,Fold,[1]; [7],0.9
NC(=O)NC1NC(=O)NC1=O (centres unmarked) [allantoin],K m,[3],Not hydrolyzed
same,V max,[3],Not hydrolyzed
same,IC50 range,[2],within the millimolar range
same,Inhibitory effect on dihydropyrimidinase activity,[2],slightly inhibit; also recorded: only slightly inhibited
"Nc1nc[nH]n1 [3-amino-1,2,4-triazole]",Concentration that affected enzyme activity,[2],100 to 750 mM
same,IC50 range,[2],within the millimolar range
same,Inhibitory effect on dihydropyrimidinase activity,[2],slightly inhibit
O=c1c(O)c(-c2ccc(O)cc2)oc2cc(O)cc(O)c12 [kaempferol],Inhibitory effect,[2]; 5-propyl-hydantoin as substrate,only slightly inhibited
same,Inhibitory effect,[2]; dihydrouracil as substrate,significant
same,IC50,"[2]; dihydrouracil as substrate, read-out: IC50",50 ± 2 µM
[Cl][Ni][Cl] [NiCl2],Effect of metal addition on dihydropyrimidinase activity,[1]; 1 mM added to reaction mixture,not useful
same,Specific activity,[1]; [6],0.91 ± 0.06 µmol/mg/min
same,Fold,[1]; [7],1.1
O=C1CCNC(=O)N1 [dihydrouracil],Fold,[3],1.0
same,K m,[3],700 ± 100 µM
same,V max,[3],7.6 ± 0.4 µmol/mg/min
same,V max/K m,[3],10.9
[Cl-].[Cl-].[Zn+2] [ZnCl2],Effect of metal addition on dihydropyrimidinase activity,[1]; 1 mM added to reaction mixture,activated
same,Specific activity,[1]; [6],2.90 ± 0.10 µmol/mg/min
same,Fold,[1]; [7],3.5
myricitrin,Inhibitory effect on dihydropyrimidinase activity,[2],No effect
O=C(O)c1cc(=O)[nH]c(=O)[nH]1 [orotic acid],IC50 range,[2],within the millimolar range
same,Inhibitory effect on dihydropyrimidinase activity,[2],slightly inhibit
CCCC1NC(=O)NC1=O (centres unmarked) [5-propyl-hydantoin],Catalytic efficiency toward dihydrouracil higher than toward this substrate,[3],100 fold
same,Fold,[3],0.01
same,K m,[3],8100 ± 1500 µM
same,V max,[3],1.2 ± 0.1 µmol/mg/min
same,V max/K m,[3],0.15
O=C1NC(=O)c2ccccc21 [phthalimide],Catalytic efficiency toward dihydrouracil higher than toward this substrate,[3],fourfold
same,Fold,[3],0.25
same,K m,[3],1000 ± 300 µM
same,V max,[3],2.7 ± 0.6 µmol/mg/min
same,V max/K m,[3],2.7
CC(=O)NO [acetohydroxamate],IC50 range,[2],within the millimolar range
same,Inhibitory effect on dihydropyrimidinase activity,[2],only slightly inhibit
[Cl-].[Cl-].[Mg+2] [MgCl2],Effect of metal addition on dihydropyrimidinase activity,[1]; 1 mM added to reaction mixture,not useful
same,Specific activity,[1]; [6],0.82 ± 0.05 µmol/mg/min
same,Fold,[1]; [7],1.0
O=C(O)CC1NC(=O)NC1=O (centres unmarked) [5-hydantoin acetic acid],IC50 range,[2],within the millimolar range
same,Inhibitory effect on dihydropyrimidinase activity,[2],only slightly inhibit
same,IC50,[2]; [8],~50000 µM
O=C1CC(C(=O)O)NC(=O)N1 (centres unmarked) [dihydroorotate],K m,[3],Not hydrolyzed
same,V max,[3],Not hydrolyzed
same,IC50 range,[2],within the millimolar range
same,Inhibitory effect on dihydropyrimidinase activity,[2],slightly inhibit; also recorded: only slightly inhibited
same,IC50,[2]; [8],~30000 µM
O=C1c2c(O)cc(O)cc2O[C@H](c2cc(O)c(O)c(O)c2)[C@H]1O [dihydromyricetin],Kd,[4],24.1 ± 1.7 µM
same,Red shift in λmax,[4],~ 23.5 nm
same,Inhibition stronger than the substrate analogs,[2],> 3 orders of magnitude
same,K m in the presence of inhibitor,[2]; [9],1600 ± 200 µM
same,V max in the presence of inhibitor,[2]; [9],5.4 ± 0.4 µmol/mg/min
same,Type of inhibition (Lineweaver-Burk plot),"[2]; 40 μM inhibitor, different concentrations of dihydrouracil",competitive inhibitor
same,Inhibitory effect on dihydropyrimidinase activity,[2],significant inhibitory effect
same,IC50,[2]; [10],40 µM
same,IC50,[2]; [11],48 µM
same,Kd,[5],22.6 µM
same,Quenching of intrinsic fluorescence,[5],89.1%
same,Red shift in emission wavelength,[5],~ 25 nm
O=c1c(O)c(-c2cc(O)c(O)c(O)c2)oc2cc(O)cc(O)c12 [myricetin],Red shift in λmax,[4],~ 7.5 nm
same,Inhibitory effect on dihydropyrimidinase activity,[2],strongly inhibit
same,IC50,[2]; [10],63 ± 3 µM
same,IC50,[2]; [11],83 ± 3 µM
same,Inhibitory effect,[2]; dihydrouracil as substrate,significant
same,Kd,[5],28.8 ± 2.2 µM
same,Quenching of intrinsic fluorescence,[5],56.2%
same,Red shift in emission wavelength,[5],~ 7 nm

# Source: paper PMC4437985, “Inhibition of a Putative Dihydropyrimidinase from Pseudomonas aeruginosa PAO1 by Flavonoids and Substrates of Cyclic Amidohydrolases” (PLoS ONE, 2015)
